The record followed here is patent US10201530B2, “Treatment of BRCA1-defective cancer or resistant cancers” (City of Hope, priority 2014, dated 2019).

For data set [1], the system named is OV90. The data set is described as follows: Cytotoxicity (MTT/DIMSCAN), OV90 cells. Type of data set: cell-based, human. The following applies: read-out: IC50, mean ± SEM. The method, then: (§1) All cell lines were acquired from the American Type Culture Collection (Manassas, Va., USA). Cells were maintained in RPMI 1640 medium (Mediatech) with 10% fetal bovine serum, 2 mM glutamine, and 100 U of penicillin and 100 μg of streptomycin per ml of medium (Sigma) at 37° C. in 5% CO2. To isolate HCC1437+BRCA1 cells, parental HCC1937 cells were transfected with pcDNA3.1 plasmid expressing full-length BRCA1 cDNA. Stable transfectant clones were selected and used for drug sensitivity assays. For stable transfection, cells at 30-40% confluence were incubated overnight with […] of plasmid DNA, using FUGENE® 6 transfectin reagent (Roche Molecular Biochemical, Monza, Italy) according to the manufacturer's instructions. Cells were then selected in puromycin (1 μg/ml) (Invitrogen life Technologies, La Jolla, Calif., USA.) After 20 to 30 days, viable puromycin-resistant colonies from HCC1937 transfections were expanded and screened. The clones that stably expressed […] and retained growth potential were assayed for BRCA1 expression by Western blot analysis. By Western blot analysis, we evaluated the restoration of BRCA1 expression in the puromycin-resistant cDNA/transfectant cells.
(§2) The MTT cytotoxicity assay was performed by incubating with MTT and monitoring the MTT formazan formed by viable cells with a microplate reader at a wavelength of 560 nm; the survival, ratio was determined using the formula: (Atest−Ablank)/(Acontrol−Ablank)×100%. The cytotoxicity was determined in 96-well plates using the semiautomatic fluorescence-based Digital Imaging Microscopy System (DIMSCAN). DIMSCAN uses digital imaging microscopy to quantify viable cells, which selectively accumulate FDA (fluorescein diacetate; Alfa Aesar, Ward Hill, Mass.). DIMSCAN is capable of measuring cytotoxicity over a 4 log dynamic range by quantifying total fluorescence per well (which is proportional to the number of viable cells) after elimination of the background fluorescence by digital thresholding and eosin Y (Mallinckrodt Baker, Center Valley, Pa.) quenching. Cells were seeded into 96-well plates in 100 μL of complete medium at 2,000 to 5,000 cells per well depending on cell line growth rate. After overnight incubation, test compound was added to each well at various concentrations in 50 μL of culture medium. […] Total fluorescence per well was then measured using DIMSCAN, and the results were expressed as the ratio of the fluorescence in treated wells to the fluorescence in untreated wells (survival fraction).

Data set [2] concerns TOV112D. The experiment in a line: Cytotoxicity, TOV112D cells. The following applies: read-out: IC50, mean ± SEM. Type of data set: cell-based, human. The method, then:
as §1
(§3) The MTT cytotoxicity assay was performed by incubating with MTT and monitoring the MTT formazan formed by viable cells with a microplate reader at a wavelength of 560 nm; the survival, ratio was determined using the formula: (Atest−Ablank)/(Acontrol−Ablank)×100%. The cytotoxicity was determined in 96-well plates using the semiautomatic fluorescence-based Digital Imaging Microscopy System (DIMSCAN). DIMSCAN uses digital imaging microscopy to quantify viable cells, which selectively accumulate FDA (fluorescein diacetate; Alfa Aesar, Ward Hill, Mass.). DIMSCAN is capable of measuring cytotoxicity over a 4 log dynamic range by quantifying total fluorescence per well (which is proportional to the number of viable cells) after elimination of the background fluorescence by digital thresholding and eosin Y (Mallinckrodt Baker, Center Valley, Pa.) quenching. Cells were seeded into 96-well plates in 100 μL of complete medium at 2,000 to 5,000 cells per well depending on cell line growth rate. After overnight incubation, test compound was added to each well at various concentrations in 50 μL of culture medium. After incubation with the drugs for 96 hours at 37° C., FDA (final concentration: […]) and eosin Y [final concentration: 0.1% (w/v)] were added to each well and the cells were incubated for an additional 20 minutes at 37° C. Total fluorescence per well was then measured using DIMSCAN, and the results were expressed as the ratio of the fluorescence in treated wells to the fluorescence in untreated wells (survival fraction).

In data set [3] the test system is OVCAR-3. The data set is described as follows: Cytotoxicity, OVCAR-3 cells. It counts as cell-based, human. The following applies: read-out: IC50, mean ± SEM. How it is done: as §1, §3
Data set [4] has as its system OVCAR-4. The experiment in a line: Cytotoxicity, OVCAR-4 cells. Type of data set: cell-based, human. The following applies: read-out: IC50, mean ± SEM. The method, then:
as §1, §3

Data set [5] relates to UWB1.289. The data set is described as follows: Cytotoxicity, UWB1.289 cells. Type of data set: cell-based, human. The following applies: read-out: IC50, mean ± SEM. How it is done: as §1, §2
The subject of data set [6] is UWB1.289 + BRCA1. The data set is described as follows: Cytotoxicity, UWB1.289+BRCA1 cells. Type of data set: cell-based, human. The note with it: read-out: IC50, mean ± SEM. The method, then:
as §1, §2

The subject of data set [7] is KB-Gem. The experiment in a line: Cytotoxicity, KB-Gem cells. The following applies: gemcitabine-resistant, read-out: IC50, mean ± SEM. Type of data set: cell-based, human. How it is done:
as §1, §3

Data set [8] concerns KB-7D. The data set is described as follows: Cytotoxicity, KB-7D cells. The note with it: cisplatin-resistant, read-out: IC50, mean ± SEM. It counts as cell-based, human. The method, then: as §1, §3
The test system of data set [9] is A2780. The data set is described as follows: Cytotoxicity, A2780 cells. Type of data set: cell-based, human. The note with it: A2780, cisplatin-sensitive ovarian cells, read-out: IC50, mean ± SEM. How it is done:
as §1, §3

The test system of data set [10] is A2780-DDDP. The data set is described as follows: Cytotoxicity, A2780-DDDP cells. Type of data set: cell-based, human. The note with it: cisplatin-resistant ovarian cells, read-out: IC50, mean ± SEM. How it is done:
as §1, §3

For data set [11], the system named is MDA-MB-231. The data set is described as follows: Cytotoxicity, MDA-MB-231 cells. It counts as cell-based, human. The method, then: as §1, §3
Data set [12] has as its system HCC1937. The data set is described as follows: Cytotoxicity, HCC1937 cells. It counts as cell-based, human. The method, then:
as §1
(§4) The MTT cytotoxicity assay was performed by incubating with MTT and monitoring the MTT formazan formed by viable cells with a microplate reader at a wavelength of 560 nm; the survival, ratio was determined using the formula: (Atest−Ablank)/(Acontrol−Ablank)×100%. The cytotoxicity was determined in 96-well plates using the semiautomatic fluorescence-based Digital Imaging Microscopy System (DIMSCAN). DIMSCAN uses digital imaging microscopy to quantify viable cells, which selectively accumulate FDA (fluorescein diacetate; Alfa Aesar, Ward Hill, Mass.). DIMSCAN is capable of measuring cytotoxicity over a 4 log dynamic range by quantifying total fluorescence per well (which is proportional to the number of viable cells) after elimination of the background fluorescence by digital thresholding and eosin Y (Mallinckrodt Baker, Center Valley, Pa.) quenching. […]

Data set [13] concerns HCC1937 + BRCA1. The experiment in a line: Cytotoxicity, HCC1937+BRCA1 cells. Type of data set: cell-based, human. The method, then:
as §1, §4

Data set [14] deals with MCF-7. The data set is described as follows: Cytotoxicity, MCF-7 cells. Type of data set: cell-based, human. The method, then: as §1, §4
Data set [15] relates to SKBR3. The experiment in a line: Cytotoxicity, SKBR3 cells. It counts as cell-based, human. The method, then:
as §1, §4

The subject of data set [16] is zebrafish embryos. The data set is described as follows: Zebrafish genotoxicity assay. Type of data set: in vivo, Danio rerio. The note with it: wild-type zebrafish embryos, HU 0-50 mM. How it is done:
Zebrafish (Danio rerio) were obtained from zebrafish Core facility of Taipei Medical University and maintained at 28° C. on a 14 h light/10 h dark cycle. Embryos were incubated at 28° C. and different developmental stages were determined as described (25). Wild-type embryos were treated with different concentrations of HU (0, 5, […], 20, 50 mM) or COH29 (0, 10, 20, 50, 100 μM) at 20 hpf to evaluate the mutagenic effect. Fifteen embryos were treated per well condition. […] Embryos were observed using an Olympus IX70-FLA inverted fluorescence microscope. Images were taken using SPOT digital camera system (Diagnostic Instruments, Sterling Heights, Mich., USA) and assembled with ImageJ software (26).

The subject of data set [17] is PARP1 protein. The data set is described as follows: PARP1 protein level by Western blot. Type of data set: cell-based, human. The following applies: HCC1937 cells irrespective of BRCA1 status, 4 h treatment. The method, then: For subcellular fractionation, cells were trypsinized and washed with cold PBS solution twice. […] Following centrifugation at 1,000 g for 5 min, the supernatant was collected (i.e., cytoplasmic fraction) and pellets were washed with the same buffer twice. The washed samples were extracted for 40 min on ice with fractionation buffer containing 0.5% NP-40 for nuclear fraction. All the samples were sonicated and clarified by centrifugation at 16,000 g for 15 min. Protein concentrations of all fractions were determined with Bio-Rad Protein Assay (Bio-Rad Laboratories, Hercules, Calif.). Immunoblotting was performed as described previously (21,22). Briefly, equal amounts of boiled protein samples were subjected to SDS-polyacrylamide gel electrophoresis (PAGE) and transferred onto nitrocellulose membranes (Bio-Rad Laboratories). Membranes were blocked for 1 hour in 3% BSA in Tris buffered saline containing 0.05% Tween 20 (TBST) and incubated for 1 hour with primary antibody (1:500 or 1:1000) diluted in TBST containing 1% BSA. After two washes with TBST, membranes were incubated for 1 hour with horseradish peroxidase-conjugated secondary Abs (1:3000 dilution) at room temperature. The immunoblots were visualized on film with the West-Q chemi-luminescence kit (GenDEPOT, Barker, Tex.).

Where [18] appears, read: Homo sapiens, UWB1289, UWB1.289.
Where [19] appears, read: Homo sapiens, UWB1289, UWB1.289 + BRCA1.
The mark [20] stands for this setting: Homo sapiens, MDA-MB-231, TNBC, read-out: IC50, mean ± SEM.

Read-outs that look alike come from different tables or passages of the source.

As for `CC(=O)O[C@H]1C(=O)[C@@]2(C)[C@H]([C@H](OC(=O)c3ccccc3)[C@]3(O)C[C@H](OC(=O)[C@H](O)[C@@H](NC(=O)c4ccccc4)c4ccccc4)C(C)=C1C3(C)C)[C@]1(OC(C)=O)CO[C@@H]1C[C@@H]2O` [Paclitaxel], the IC50 in [1] (Homo sapiens, OV-90, OV90) stood at 9.09 ± 0.41 nM; in data set [2] (Homo sapiens), 6.45 ± 1.05 nM; in [3] (Homo sapiens), 2.89 ± 0.07 nM; in data set [4] (Homo sapiens), 5.55 ± 0.05 nM; in data set [5] (setting [18]), 13.9 ± 0.7 nM; in [6] (setting [19]) it was 13 ± 1.62 nM. The concentration for half-maximal inhibition (IC50) in data set [7] (Homo sapiens) was determined as 1.95 ± 0.15 nM; in data set [8] (Homo sapiens, KB7D), 5.17 ± 0.17 nM; in [9] (Homo sapiens), 3.6 ± 1.67 nM; in data set [10] (Homo sapiens), 11.4 ± 1.49 nM; in [11] (setting [20]) it was 2.01 ± 0.57 nM; in data set [11] (Homo sapiens, MDA-MB-231, Table 3 paclitaxel column, read-out: IC50) it was 2.01 ± 0.57 nM. The half-inhibitory concentration (IC50) in data set [12] (Homo sapiens, HCC1937, Table 3 paclitaxel column) amounted to 4.04 ± 0.44 nM; in [13] (Homo sapiens, HCC1937 + BRCA1, Table 3 paclitaxel column), 5.4 ± 0.07 nM; in data set [14] (Homo sapiens, MCF7, MCF-7, Table 3 paclitaxel column) it was 0.00636 ± 0.00111 µM; in data set [15] (Homo sapiens, SK-BR-3, SKBR3, Table 3 paclitaxel column) it was 3.37 ± 0.08 nM.

Regarding `Nc1ccn([C@@H]2O[C@H](CO)[C@@H](O)C2(F)F)c(=O)n1` [Gemcitabine], the IC50 in data set [1] (Homo sapiens, OV-90, OV90) came out at 78.3 ± 11.6 nM; in data set [2] (Homo sapiens), 28.4 ± 4.18 nM; in data set [3] (Homo sapiens), 118 nM; in data set [4] (Homo sapiens), 55.1 ± 3.55 nM; in data set [5] (setting [18]), 56.48 ± 0.32 nM; in data set [6] (setting [19]) it was 42.2 ± 0.62 nM. The half-inhibitory concentration (IC50) amounted to 60 ± 10 nM in data set [7] (Homo sapiens); 0.69 ± 0.02 nM in [8] (Homo sapiens, KB7D); 25.5 ± 1.66 nM in data set [9] (Homo sapiens); 36.3 ± 0.79 nM in [10] (Homo sapiens); 17 ± 1.33 nM in data set [11] (setting [20]).

Regarding `NC(=O)NO` [HU, hydroxyurea], the developmental defects entry in data set [16] (COH29 0-100 μM) was “caused defects in eyes and heart by 4 dpf”. For the same compound, the “number of mutant embryos” value in data set [16] is on record as “dose-dependent increase in the number of mutant embryos”.

Regarding `N.N.[Cl][Pt][Cl]` [Cisplatin], the half-inhibitory concentration (IC50) came to 1570 ± 290 nM in data set [1] (OV90, wild-type BRCA1 ovarian cancer cells, COH29 72 h); 1320 ± 200 nM in [2]; 1640 ± 40 nM in data set [3]; 2250 ± 250 nM in data set [4]; 1430 ± 870 nM in [5] (UWB1.289, BRCA1-defective ovarian cancer cells, COH29 72 h); 7400 ± 2020 nM in data set [6] (UWB1.289 + BRCA1 (WT), COH29 72 h). In addition, the IC50 worked out at 380 ± 30 nM in [7]; 7500 ± 300 nM in data set [8]; 690 nM in [9]; 5020 ± 1180 nM in data set [10]; 3740 ± 210 nM in data set [11] (MDA-MB-231, TNBC, read-out: IC50, mean ± SEM); 2460 ± 110 nM in [12] (HCC1937, triple negative, BRCA1 mutant, COH29 72 h). The IC50 in [13] (HCC1937 + BRCA1, triple negative, COH29 72 h) came out at 2930 ± 550 nM; in data set [14] (MCF-7, ER+ PR(+)) it was 12.1 ± 1.02 µM; in data set [15] (SKBR3, ER− PR(−) HER2+), 990 ± 240 nM.

Regarding `C[C@]1(c2nc3c(C(N)=O)cccc3[nH]2)CCCN1` [ABT-888], in data set [17], the “effect on PARP1 protein level” value is given as “significant reduction of PARP1”.
